Reference: PubChem BioAssay (NCI)
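Step 1: Grow cells in 96-well plates. Step 2: Expose to compound for 48 hours at 5 concentrations. Step 3: Interpolate endpoints linearly; if unreached, use highest concentration. GI50 is the concentration that inhibits growth by half. Definition used: TGI = concentration required for complete inhibition of growth.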

Assays:
Test in all cases: NCI tumour cell line growth inhibition, 48 h
HCC-2998 colon = system: HCC-2998 colon
KM12 colon = system: KM12 colon
MDA-MB-231 breast = system: MDA-MB-231 breast
NCI-H522 lung = system: NCI-H522 lung
OVCAR-5 ovarian = system: OVCAR-5 ovarian
OVCAR-8 ovarian = system: OVCAR-8 ovarian
SF-295 CNS = system: SF-295 CNS
SK-OV-3 ovarian = system: SK-OV-3 ovarian
SNB-75 CNS = system: SNB-75 CNS
UACC-257 melanoma = system: UACC-257 melanoma

Structure (SMILES): c1cc(-c2cnn3nc(N4CCOCC4)ccc23)nc(NC2CC2)n1
- GI50 (HCC-2998 colon): 8.64 µM
- TGI (HCC-2998 colon): > 25 µM
- GI50 (KM12 colon): 8.13 µM
- TGI (KM12 colon): > 25 µM
- GI50 (MDA-MB-231 breast): 10.2 µM
- TGI (MDA-MB-231 breast): > 25 µM
- GI50 (NCI-H522 lung): 13.5 µM
- TGI (NCI-H522 lung): > 25 µM
- GI50 (OVCAR-5 ovarian): 6.64 µM
- TGI (OVCAR-5 ovarian): > 22.4 µM
- GI50 (OVCAR-8 ovarian): 7.9 µM
- TGI (OVCAR-8 ovarian): > 25 µM
- GI50 (SF-295 CNS): 8.72 µM
- TGI (SF-295 CNS): > 25 µM
- GI50 (SK-OV-3 ovarian): 14.6 µM
- TGI (SK-OV-3 ovarian): > 25 µM
- GI50 (SNB-75 CNS): 5.99 µM
- TGI (SNB-75 CNS): 18.6 µM
- GI50 (UACC-257 melanoma): 7.54 µM
- TGI (UACC-257 melanoma): > 25 µM

Structure (SMILES): O=C(Nc1ccc([N+](=O)[O-])cc1)c1cc2ccccc2cc1O
- GI50 (HCC-2998 colon): 1.25 µM
- TGI (HCC-2998 colon): 4.8 µM
- GI50 (KM12 colon): 0.698 µM
- TGI (KM12 colon): 2.68 µM
- GI50 (MDA-MB-231 breast): 0.413 µM
- TGI (MDA-MB-231 breast): 1.89 µM
- GI50 (NCI-H522 lung): 0.268 µM
- TGI (NCI-H522 lung): 1.61 µM
- GI50 (OVCAR-5 ovarian): 1.73 µM
- TGI (OVCAR-5 ovarian): 48.2 µM
- GI50 (OVCAR-8 ovarian): 0.425 µM
- TGI (OVCAR-8 ovarian): 12.6 µM
- GI50 (SF-295 CNS): 1.15 µM
- TGI (SF-295 CNS): 3.17 µM
- GI50 (SK-OV-3 ovarian): 0.384 µM
- TGI (SK-OV-3 ovarian): 15.7 µM
- GI50 (SNB-75 CNS): 0.538 µM
- TGI (SNB-75 CNS): 4.07 µM
- GI50 (UACC-257 melanoma): 0.313 µM
- TGI (UACC-257 melanoma): 1.48 µM

Structure (SMILES): CSc1ccc(C(=O)/C=C/c2ccc(F)cc2)cc1
- GI50 (HCC-2998 colon): 41.8 µM
- TGI (HCC-2998 colon): > 100 µM
- GI50 (KM12 colon): 70.9 µM
- TGI (KM12 colon): > 100 µM
- GI50 (MDA-MB-231 breast): 74.6 µM
- TGI (MDA-MB-231 breast): > 100 µM
- GI50 (NCI-H522 lung): 38.9 µM
- TGI (NCI-H522 lung): > 100 µM
- GI50 (OVCAR-5 ovarian): 99.6 µM
- TGI (OVCAR-5 ovarian): > 100 µM
- GI50 (OVCAR-8 ovarian): > 100 µM
- TGI (OVCAR-8 ovarian): > 100 µM
- GI50 (SF-295 CNS): 33.4 µM
- TGI (SF-295 CNS): > 100 µM
- GI50 (SK-OV-3 ovarian): > 100 µM
- TGI (SK-OV-3 ovarian): > 100 µM
- GI50 (SNB-75 CNS): 7.05 µM
- TGI (SNB-75 CNS): > 100 µM
- GI50 (UACC-257 melanoma): > 100 µM
- TGI (UACC-257 melanoma): > 100 µM

Structure (SMILES): Cc1cccc2cc3ccc4ccccc4c3cc12
- TGI (HCC-2998 colon): 46.7 µM
- TGI (KM12 colon): > 100 µM
- TGI (MDA-MB-231 breast): > 100 µM
- TGI (NCI-H522 lung): 95.5 µM
- TGI (OVCAR-5 ovarian): > 100 µM
- TGI (OVCAR-8 ovarian): > 100 µM
- TGI (SF-295 CNS): > 100 µM
- TGI (SK-OV-3 ovarian): > 100 µM
- TGI (SNB-75 CNS): > 100 µM
- TGI (UACC-257 melanoma): 53 µM

Structure (SMILES): CO[C@H]1/C=C/C[C@H](C)[C@@H](C)S(=O)(=O)NC(=O)c2ccc3c(c2)N(C[C@@H]2CC[C@H]21)C[C@@]1(CCCc2cc(Cl)ccc21)CO3
- GI50 (HCC-2998 colon): 1.65 µM
- TGI (HCC-2998 colon): 3.45 µM
- GI50 (KM12 colon): 3.17 µM
- TGI (KM12 colon): 11 µM
- GI50 (MDA-MB-231 breast): 2.11 µM
- TGI (MDA-MB-231 breast): 5.64 µM
- GI50 (NCI-H522 lung): 1.39 µM
- TGI (NCI-H522 lung): 3.3 µM
- GI50 (OVCAR-5 ovarian): 2.91 µM
- TGI (OVCAR-5 ovarian): 11.9 µM
- GI50 (OVCAR-8 ovarian): 3.72 µM
- TGI (OVCAR-8 ovarian): 14.4 µM
- GI50 (SF-295 CNS): 1.97 µM
- TGI (SF-295 CNS): 6.05 µM
- GI50 (SK-OV-3 ovarian): 3.5 µM
- TGI (SK-OV-3 ovarian): 12.6 µM
- GI50 (SNB-75 CNS): 1.34 µM
- TGI (SNB-75 CNS): 3.03 µM
- GI50 (UACC-257 melanoma): 2.99 µM
- TGI (UACC-257 melanoma): 9.69 µM

Structure (SMILES): O=C1/C(=C/c2ccc(C(F)(F)F)cc2)COc2ccc(O)cc21
- GI50 (HCC-2998 colon): 1.57 µM
- TGI (HCC-2998 colon): 2.93 µM
- GI50 (KM12 colon): 1.75 µM
- TGI (KM12 colon): 3.41 µM
- GI50 (MDA-MB-231 breast): 2.36 µM
- TGI (MDA-MB-231 breast): 5.65 µM
- GI50 (NCI-H522 lung): 1.59 µM
- TGI (NCI-H522 lung): 3.69 µM
- GI50 (OVCAR-5 ovarian): 2.18 µM
- TGI (OVCAR-5 ovarian): 5.49 µM
- GI50 (OVCAR-8 ovarian): 3.26 µM
- TGI (OVCAR-8 ovarian): 11.1 µM
- GI50 (SF-295 CNS): 12.1 µM
- TGI (SF-295 CNS): 24.9 µM
- GI50 (SK-OV-3 ovarian): 16.2 µM
- TGI (SK-OV-3 ovarian): 29.7 µM
- GI50 (SNB-75 CNS): 13.9 µM
- TGI (SNB-75 CNS): 27.8 µM
- GI50 (UACC-257 melanoma): 8.06 µM
- TGI (UACC-257 melanoma): 20.9 µM
